Experiments:
A549 [1] = assay: Cytotoxicity against human A549 cells after 14 hrs by CCK-8 assay; type: functional, cell-based; details: A549, 14 h
HeLa [2] = assay: Cytotoxicity against human HeLa cells after 14 hrs by CCK-8 assay; type: functional, cell-based
MCF7 [3] = assay: Cytotoxicity against human MCF7 cells after 14 hrs by CCK-8 assay; type: functional, cell-based; details: MCF7, 14 h
LoVo [4] = assay: Cytotoxicity against human LoVo cells after 14 hrs by CCK-8 assay; type: functional, cell-based
[5] = Cytotoxicity against human PNT2 cells at 8.6 to 2200 uM after 14 hrs by CCK-8 assay; type: cell-based; details: pnt2, 14 h
LoVo [6] = assay: Induction of apoptosis in human LoVo cells assessed as viable cells at 17 uM after 4 hrs by FITC Annexin-V/propidium iodide staining-based flow cytometry (reference value: 79.50%); type: functional; details: read-out: Activity
LoVo [7] = assay: Induction of apoptosis in human LoVo cells assessed as viable cells at 137 uM after 4 hrs by FITC Annexin-V/propidium iodide staining-based flow cytometry (reference value: 79.50%); type: functional; details: read-out: Activity
LoVo [8] = assay: Induction of apoptosis in human LoVo cells assessed as apoptotic cells at 17 uM after 4 hrs by FITC Annexin-V/propidium iodide staining-based flow cytometry (reference value: 20.50%); type: functional
LoVo [9] = assay: Induction of apoptosis in human LoVo cells assessed as apoptotic cells at 137 uM after 4 hrs by FITC Annexin-V/propidium iodide staining-based flow cytometry (reference value: 20.50%); type: functional
A549 [10] = assay: Induction of apoptosis in human A549 cells assessed as viable cells at 8.6 uM after 4 hrs by FITC Annexin-V/propidium iodide staining-based flow cytometry (reference value: 84.40%); type: functional; details: A549, 4 h, read-out: Activity
A549 [11] = assay: Induction of apoptosis in human A549 cells assessed as viable cells at 69 uM after 4 hrs by FITC Annexin-V/propidium iodide staining-based flow cytometry (reference value: 84.40%); type: functional; details: A549, 4 h, read-out: Activity
A549 [12] = assay: Induction of apoptosis in human A549 cells assessed as apoptotic cells at 8.6 uM after 4 hrs by FITC Annexin-V/propidium iodide staining-based flow cytometry (reference value: 15.60%); type: functional
A549 [13] = assay: Induction of apoptosis in human A549 cells assessed as apoptotic cells at 69 uM after 4 hrs by FITC Annexin-V/propidium iodide staining-based flow cytometry (reference value: 15.60%); type: functional
MCF7 [14] = assay: Induction of apoptosis in human MCF7 cells assessed as viable cells at 4.3 uM after 4 hrs by FITC Annexin-V/propidium iodide staining-based flow cytometry (reference value: 70.40%); type: functional; details: MCF7, 4 h, read-out: Activity
MCF7 [15] = assay: Induction of apoptosis in human MCF7 cells assessed as viable cells at 34 uM after 4 hrs by FITC Annexin-V/propidium iodide staining-based flow cytometry (reference value: 70.40%); type: functional; details: MCF7, 4 h, read-out: Activity
MCF7 [16] = assay: Induction of apoptosis in human MCF7 cells assessed as apoptotic cells at 4.3 uM after 4 hrs by FITC Annexin-V/propidium iodide staining-based flow cytometry (reference value: 29.60%); type: functional
MCF7 [17] = assay: Induction of apoptosis in human MCF7 cells assessed as apoptotic cells at 34 uM after 4 hrs by FITC Annexin-V/propidium iodide staining-based flow cytometry (reference value: 29.60%); type: functional
HeLa [18] = assay: Induction of apoptosis in human HeLa cells assessed as viable cells at 8.6 uM after 4 hrs by FITC Annexin-V/propidium iodide staining-based flow cytometry (reference value: 87.00%); type: functional; details: read-out: Activity
HeLa [19] = assay: Induction of apoptosis in human HeLa cells assessed as viable cells at 69 uM after 4 hrs by FITC Annexin-V/propidium iodide staining-based flow cytometry (reference value: 87.00%); type: functional; details: read-out: Activity
HeLa [20] = assay: Induction of apoptosis in human HeLa cells assessed as apoptotic cells at 8.6 uM after 4 hrs by FITC Annexin-V/propidium iodide staining-based flow cytometry (reference value: 13.00%); type: functional
HeLa [21] = assay: Induction of apoptosis in human HeLa cells assessed as apoptotic cells at 69 uM after 4 hrs by FITC Annexin-V/propidium iodide staining-based flow cytometry (reference value: 13.00%); type: functional
[22] = Lipophilicity, log P of the compound; type: physicochemical; details: octanol/water
LoVo [23] = assay: Induction of apoptosis in human LoVo cells assessed as viable cells at 69 uM after 4 hrs by FITC Annexin-V/propidium iodide staining-based flow cytometry (reference value: 79.50%); type: functional; details: read-out: Activity
LoVo [24] = assay: Induction of apoptosis in human LoVo cells assessed as viable cells at 550 uM after 4 hrs by FITC Annexin-V/propidium iodide staining-based flow cytometry (reference value: 79.50%); type: functional; details: read-out: Activity
LoVo [25] = assay: Induction of apoptosis in human LoVo cells assessed as apoptotic cells at 69 uM after 4 hrs by FITC Annexin-V/propidium iodide staining-based flow cytometry (reference value: 20.50%); type: functional
LoVo [26] = assay: Induction of apoptosis in human LoVo cells assessed as apoptotic cells at 550 uM after 4 hrs by FITC Annexin-V/propidium iodide staining-based flow cytometry (reference value: 20.50%); type: functional
A549 [27] = assay: Induction of apoptosis in human A549 cells assessed as viable cells at 550 uM after 4 hrs by FITC Annexin-V/propidium iodide staining-based flow cytometry (reference value: 84.40%); type: functional; details: A549, 4 h, read-out: Activity
A549 [28] = assay: Induction of apoptosis in human A549 cells assessed as apoptotic cells at 550 uM after 4 hrs by FITC Annexin-V/propidium iodide staining-based flow cytometry (reference value: 15.60%); type: functional
MCF7 [29] = assay: Induction of apoptosis in human MCF7 cells assessed as viable cells at 275 uM after 4 hrs by FITC Annexin-V/propidium iodide staining-based flow cytometry (reference value: 70.40%); type: functional; details: MCF7, 4 h, read-out: Activity
MCF7 [30] = assay: Induction of apoptosis in human MCF7 cells assessed as apoptotic cells at 275 uM after 4 hrs by FITC Annexin-V/propidium iodide staining-based flow cytometry (reference value: 29.60%); type: functional
HeLa [31] = assay: Induction of apoptosis in human HeLa cells assessed as viable cells at 550 uM after 4 hrs by FITC Annexin-V/propidium iodide staining-based flow cytometry (reference value: 87.00%); type: functional; details: read-out: Activity
HeLa [32] = assay: Induction of apoptosis in human HeLa cells assessed as apoptotic cells at 550 uM after 4 hrs by FITC Annexin-V/propidium iodide staining-based flow cytometry (reference value: 13.00%); type: functional

logP [22]	SMILES	IC50 (A549 [1]) [µM]	IC50 (HeLa [2]) [µM]	IC50 (MCF7 [3]) [µM]	IC50 (LoVo [4]) [µM]	Activity [5] [%]	viability at 69 µM (A549 [11]) [%]	Activity (A549 [13]) [%]	viability at 34 µM (MCF7 [15]) [%]	Activity (MCF7 [17]) [%]	viability at 69 µM (HeLa [19]) [%]	Activity (HeLa [21]) [%]	further results
-1.13	CC(=O)OC[C@H]1O[C@@H](S[C@H]2CC(=O)[C@@H]3OC[C@H]2O3)[C@H](OC(C)=O)[C@@H](OC(C)=O)[C@@H]1OC(C)=O	119	91.4	47.1	166	10	75.8	24.2	68.8	31.25	63.1	36.9	viability at 17 µM (LoVo [6]): 72.5%; viability at 137 µM (LoVo [7]): 69.7%; Activity (LoVo [8]): 27.55%; Activity (LoVo [9]): 30.3%; viability at 8.6 µM (A549 [10]): 76.4%; Activity (A549 [12]): 23.6%; viability at 4.3 µM (MCF7 [14]): 63.1%; Activity (MCF7 [16]): 36.9%; viability at 8.6 µM (HeLa [18]): 80%; Activity (HeLa [20]): 20%
-2.05	O=C1C[C@H](S[C@@H]2O[C@H](CO)[C@@H](O)[C@H](O)[C@H]2O)[C@H]2CO[C@@H]1O2	692	1080	366	772	10	70.3	29.7	75.1	24.9	82.6	17.4	viability at 69 µM (LoVo [23]): 71%; viability at 550 µM (LoVo [24]): 62.4%; Activity (LoVo [25]): 29%; Activity (LoVo [26]): 37.65%; viability at 550 µM (A549 [27]): 74.3%; Activity (A549 [28]): 25.7%; viability at 275 µM (MCF7 [29]): 26.4%; Activity (MCF7 [30]): 73.6%; viability at 550 µM (HeLa [31]): 67.2%; Activity (HeLa [32]): 32.8%

Reference: ChEMBL document CHEMBL3352200, “Thio-sugar motif of functional CARB-pharmacophore for antineoplastic activity. Part 2” (Bioorg Med Chem Lett, 2014)
